Results from patent publication US20060008506A1, “Method for preparing therapeutic ophthalmic articles using compressed fluids” (priority 2004, published 2006).

Experiments:
[1] = in vitro release kinetic study of impregnated Focus Dailies (Nelfilcon A) hydrogel contact lenses after three-month storage; type: physicochemical; settings: for maximum cumulative amount of released Flurbiprofen: CO2, 41° C., after three months storage in 0.9% NaCl
Procedure: Later on, the impregnated ophthalmic article was placed in 5 ml of physiological serum (saline solution, 0.9% NaCl) inside a closed vessel. This vessel was subsequently placed inside a temperature controlled bath (at 37° C.), in order to carry out the in vitro sustained release kinetic study of the drug (Flurbiprofen). At regular time intervals (shorter time intervals at the beginning), 3 ml of the release solution (containing the released drug) were removed from the vessel and replaced by 3 ml of fresh physiological serum. The concentration of Flurbiprofen was determined by spectroscopy for each sample collected. Two Focus® […]® (Ciba Vision, Ga., USA) hydrogel contact lenses (non ionic, high hydration, FDA Group II, 69% water+31% Nelfilcon A copolymer) were separately treated in two different experiments (I and II) by means of the above-mentioned third embodiment of the process, in accordance with the invention and according to FIG. 3. In both experiments, the ophthalmic articles processed were impregnated with Flurbiprofen (CAS[5104-49-4], 97% purity, Sigma-Aldrich) using Carbon Dioxide (99.998% purity, Air Liquide). No co-solvent was added and no stirring was employed. In experiment I, the operating conditions were 41° C. and 90 bar, while in experiment II the operating conditions were 41° C. and 120 bar. In both experiments, drug solubilization was carried out for 1 hour and 30 minutes, and impregnation was carried out for 1 hour. After impregnation, the vessel was slowly depressurized (for 15 minutes) and the compressed fluid (Carbon Dioxide) was removed. The high pressure vessel was then removed from the temperature controlled bath, opened and the ophthalmic article was recovered, impregnated with Flurbiprofen. Afterwards, the two ophthalmic articles were stored and preserved in physiological serum (saline solution, 0.9% NaCl) in closed vessels, for three months. After this period, in vitro kinetic studies were carried out in respect of Flurbiprofen release, following the experimental procedures already described at Example 1.

inflammatory processes = settings: cited from earlier work
[2] = in vitro sustained release kinetic study of impregnated Focus Monthly (Vifilcon A) hydrogel contact lens in physiological serum; type: physicochemical; settings: 90.0 bar, 40.0° C.; for release time at which maximum cumulative amount was attained: 0.9% NaCl at 37° C.; for maximum cumulative amount of released Flurbiprofen: 30 min
Procedure: A Focus® Monthly® (Ciba Vision, Ga., USA) hydrogel contact lens (ionic, high hydration, FDA Group IV, 55% water+45% Vifilcon A copolymer) was treated by means of the above-mentioned first embodiment of the process, in accordance with the invention and according to FIG. 1. The ophthalmic article was contacted in a sealed high pressure vessel with a mixture of compressed carbon Dioxide (99.998% purity, Air Liquid), Flurbiprofen (CAS[5104-49-4], 97% purity, Sigma-Aldrich) and Ethanol (CAS[64-17-5], 99.8% purity, Fluka), as co-solvent (5% molar in respect of carbon Dioxide). The operating conditions were 90.0 bar and 40.0° C. No stirring was employed. After a 30 minute processing time, the vessel was slowly expanded (for 1.5 minutes) and the compressed fluid (carbon Dioxide) was removed. Part of the co-solvent (Ethanol) was dragged out of the system by the Carbon Dioxide, while its remaining part precipitated, as a liquid, to the bottom of the high pressure vessel. The high pressure vessel was then removed from the temperature controlled bath, opened and the ophthalmic article was recovered, impregnated with Flurbiprofen. Later on, the impregnated ophthalmic article was placed in 5 ml of physiological serum (saline solution, 0.9% NaCl) inside a closed vessel. This vessel was subsequently placed inside a temperature controlled bath (at 37° C.), in order to carry out the in vitro sustained release kinetic study of the drug (Flurbiprofen). At regular time intervals (shorter time intervals at the beginning), 3 ml of the release solution (containing the released drug) were removed from the vessel and replaced by 3 ml of fresh physiological serum. The concentration of Flurbiprofen was determined by spectroscopy for each sample collected. A Focus® Monthly® (Ciba Vision, Ga., USA) hydrogel contact lens (ionic, high hydration, FDA Group IV, 55% water+45% Vifilcon A copolymer) was treated by means of the above-mentioned first embodiment of the process, in accordance with the invention and according to FIG. 1. The ophthalmic article was contacted in a sealed high pressure vessel with a mixture of Carbon Dioxide (99.998% purity, Air Liquide) and Flurbiprofen (CAS[5104-49-4], 97% purity, Sigma-Aldrich). No co-solvent was added. The operating conditions were 90.0 bar and 40.0° C. No stirring was employed. After a 30 minute processing time, the vessel was slowly expanded (for 15 minutes) and the compressed fluid (Carbon Dioxide) was removed. The high pressure vessel was then removed from the temperature controlled bath, opened and the ophthalmic article was recovered, impregnated with Flurbiprofen. The in vitro kinetic studies concerning the release of Flurbiprofen were conducted in accordance with the experimental procedures already described at Example 1.

baboons = settings: single dose of 125 mg/Kg; cited from earlier work
[3] = analysis of preservation and storage media after three-month storage of impregnated Focus Dailies lenses; type: physicochemical; settings: for effective total mass of Flurbiprofen impregnated in the article: sum of storage and release amounts; for mass of Flurbiprofen released in preservation and storage media: three-month storage in 0.9% NaCl
Procedure: Afterwards, the two ophthalmic articles were stored and preserved in physiological serum (saline solution, 0.9% NaCl) in closed vessels, for three months. After this period, in vitro kinetic studies were carried out in respect of Flurbiprofen release, following the experimental procedures already described at Example 1.
The maximum cumulative amount of released Flurbiprofen was about 0.007 mg for experiment I and about 0.035 mg for experiment II. These amounts were actually attained after 7 hours of release kinetic studies. […] However, in these cases it cannot be assumed that these values correspond to the total amount of Flurbiprofen impregnated in each ophthalmic article, given that part of the impregnated drug was released in the preservation medium during the three-month storage period. Preservation and storage media were also analyzed and the mass of Flurbiprofen released therein was about 0.0030 mg for experiment I and about 0.0025 mg for experiment II. Therefore, we can assume that the effective total mass of Flurbiprofen impregnated in the two articles was 0.0100 mg and 0.0375 mg respectively for experiments I and II.

CC(C(=O)O)c1ccc(-c2ccccc2)c(F)c1 (stereo not shown) [Flurbiprofen]
maximum cumulative amount of released Flurbiprofen ([1]; Example 3, experiment I: Focus Dailies lens, 90 bar): about 0.007 mg | maximum cumulative amount of released Flurbiprofen ([1]; Example 3, experiment II: Focus Dailies lens, 120 bar): about 0.035 mg | release time at which maximum cumulative amounts were attained ([1]; Example 3, experiments I and II): 7 h | minimum amount of Flurbiprofen to be kept in the eye to prevent inflammatory processes (inflammatory processes): 0.03 to 0.15 µg | release time at which maximum cumulative amount was attained ([2]; Example 1: CO2 + ethanol co-solvent): 24 h | maximum cumulative amount of released Flurbiprofen ([2]; Example 1: Focus Monthly lens impregnated with CO2 + 5% molar ethanol co-solvent, release in 5 ml 0.9% NaCl at 37° C.): about 0.25 mg | release time at which maximum cumulative amount was attained ([2]; Example 2: CO2, no co-solvent): 6 h | maximum cumulative amount of released Flurbiprofen ([2]; Example 2: Focus Monthly lens impregnated with CO2, no co-solvent, release in 0.9% NaCl at 37° C.): about 0.11 mg | acute toxicity (baboons): no acute toxicity | effective total mass of Flurbiprofen impregnated in the article ([3]; Example 3, experiment I (41° C., 90 bar)): 0.0100 mg | mass of Flurbiprofen released in preservation and storage media ([3]; Example 3, experiment I (90 bar)): about 0.0030 mg | effective total mass of Flurbiprofen impregnated in the article ([3]; Example 3, experiment II (41° C., 120 bar)): 0.0375 mg | mass of Flurbiprofen released in preservation and storage media ([3]; Example 3, experiment II (120 bar)): about 0.0025 mg
